The source of these data is PMC2732577 (Biochemistry, 2008).

“Also recorded” adds a separate entry of the source. Ends that are not written are not given here.

What all share (type): biochemical
The target in experiment [1] is T1, Pf-Sir2 (Plasmodium falciparum, UniProt Q8IE47).
T1 sequence (Q8IE47 1-273): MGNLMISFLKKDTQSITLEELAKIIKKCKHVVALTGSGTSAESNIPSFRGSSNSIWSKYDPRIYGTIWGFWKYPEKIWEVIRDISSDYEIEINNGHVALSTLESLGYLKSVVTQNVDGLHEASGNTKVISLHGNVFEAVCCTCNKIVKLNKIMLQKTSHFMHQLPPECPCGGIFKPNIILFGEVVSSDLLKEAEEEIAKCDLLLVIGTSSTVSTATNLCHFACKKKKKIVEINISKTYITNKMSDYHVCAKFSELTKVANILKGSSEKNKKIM

In experiment [2] the target is T1, Pf-Sir2. This is another data set of the same source.
In experiment [3] the target is T1, Pf-Sir2. The source holds these as a separate data set.
Experiment [4] has as its target T1, Pf-Sir2. Nature of the experiment: Thionicotinamide base-exchange assay. The settings on record: similar reaction conditions, H3 substrate.
Experiment [5] addresses T1, Pf-Sir2. Nature of the experiment: Decomposition of AADPR in presence of Pf-Sir2. The note with it: data not shown.

Turning to “p300: human di-acetylated p300 sequence corresponding to amino acid positions 1034–1053 (ATQSSPAPGQSKKKIFKPEE; also: di-acetylated, places not given here; UniProt Q09472 1034-1053, looked up, fragment)”, the “stimulation of NAD^+ hydrolysis by peptide” value in experiment [1] is recorded as “best hydrolysis stimulating substrate”. In addition, the deacetylation co-product in experiment [2] is 2′- and 3′- O-acetyl-ADP-ribose (AADPR).
Regarding `NC(=O)c1ccc[n+]([C@@H]2O[C@H](COP(=O)([O-])OP(=O)(O)OC[C@H]3O[C@@H](n4cnc5c(N)ncnc54)[C@H](O)[C@@H]3O)[C@@H](O)[C@H]2O)c1` [NAD^+, nicotinamide adenine dinucleotide oxidized form], in experiment [3], the “stereochemistry of Pf-Sir2 methanolysis product” value is recorded as “inverted stereochemistry; also recorded: only α-1-O-methyl-ADPR as a product (no β)”. In addition, in experiment [3] (pH 8.5), the “k0 (α-MeO-ADPR)” value amounted to 0.00027 s⁻¹; the “ksolvolysis (combined ADPR and 1-O-methyl-ADPR)” value amounted to 0.00138 s⁻¹. The “rate of peptide-independent solvolysis vs deacetylation” value in experiment [1] is on record as “exceeds the deacetylation rate for H3”. Further, the “kcat, NAD^+ hydrolysis, no peptide” value in experiment [1] (pH 7.3) is recorded as 1.2 ± 0.2 10^−3 s^−1. In addition, in experiment [2] (read-out: Km for NAD^+ in H3 deacetylation), the Km stood at 120 µM.
For the compound `NC(=S)c1cccnc1` [thionicotinamide], in experiment [4], the “base-exchange Km, times higher than nicotinamide” value worked out at 8 times and the “base-exchange, times slower than nicotinamide” value is reported as “approximately 4 times”.
For “O-acetyl-adenosine diphosphoribose [AADPR]”, the “decomposition of AADPR on adding Pf-Sir2 to SIRT1 reaction mixture” value in experiment [5] is “not decomposed”. Also, the “decomposition of purified AADPR in presence of Pf-Sir2” value in experiment [5] (relative to a control) is listed as “not decomposed faster relative to a control”.

As a reminder, the Km is the concentration of substrate that gives half-maximal velocity.
